# Experimental data as given in US20230219986A1, “NOVEL AMINOPYRIMIDINE EGFR INHIBITOR” (QILU PHARMACEUTICAL CO., LTD., priority 2020, published 2023).
# Like-named read-outs stand apart in the source and are kept apart here.
# Experiments:
# [1] = molecular target: Ba/F3 L858R/T790M/C797S EGFR triple mutant cell line (Homo sapiens, UniProt P00533, T790M/C797S/L858R, cells depend on it); assay: Cell proliferation inhibition experiment (CellTiter-Glo), Ba/F3 L858R/T790M/C797S; format: cell-based; conditions: 72 hours, Cell Titer-Glo, read-out: Ba/F3 (L858R/T790M/C797S) IC50
# Sequence of Ba/F3 L858R/T790M/C797S EGFR triple mutant cell line (P00533 whole entry T790M/C797S/L858R): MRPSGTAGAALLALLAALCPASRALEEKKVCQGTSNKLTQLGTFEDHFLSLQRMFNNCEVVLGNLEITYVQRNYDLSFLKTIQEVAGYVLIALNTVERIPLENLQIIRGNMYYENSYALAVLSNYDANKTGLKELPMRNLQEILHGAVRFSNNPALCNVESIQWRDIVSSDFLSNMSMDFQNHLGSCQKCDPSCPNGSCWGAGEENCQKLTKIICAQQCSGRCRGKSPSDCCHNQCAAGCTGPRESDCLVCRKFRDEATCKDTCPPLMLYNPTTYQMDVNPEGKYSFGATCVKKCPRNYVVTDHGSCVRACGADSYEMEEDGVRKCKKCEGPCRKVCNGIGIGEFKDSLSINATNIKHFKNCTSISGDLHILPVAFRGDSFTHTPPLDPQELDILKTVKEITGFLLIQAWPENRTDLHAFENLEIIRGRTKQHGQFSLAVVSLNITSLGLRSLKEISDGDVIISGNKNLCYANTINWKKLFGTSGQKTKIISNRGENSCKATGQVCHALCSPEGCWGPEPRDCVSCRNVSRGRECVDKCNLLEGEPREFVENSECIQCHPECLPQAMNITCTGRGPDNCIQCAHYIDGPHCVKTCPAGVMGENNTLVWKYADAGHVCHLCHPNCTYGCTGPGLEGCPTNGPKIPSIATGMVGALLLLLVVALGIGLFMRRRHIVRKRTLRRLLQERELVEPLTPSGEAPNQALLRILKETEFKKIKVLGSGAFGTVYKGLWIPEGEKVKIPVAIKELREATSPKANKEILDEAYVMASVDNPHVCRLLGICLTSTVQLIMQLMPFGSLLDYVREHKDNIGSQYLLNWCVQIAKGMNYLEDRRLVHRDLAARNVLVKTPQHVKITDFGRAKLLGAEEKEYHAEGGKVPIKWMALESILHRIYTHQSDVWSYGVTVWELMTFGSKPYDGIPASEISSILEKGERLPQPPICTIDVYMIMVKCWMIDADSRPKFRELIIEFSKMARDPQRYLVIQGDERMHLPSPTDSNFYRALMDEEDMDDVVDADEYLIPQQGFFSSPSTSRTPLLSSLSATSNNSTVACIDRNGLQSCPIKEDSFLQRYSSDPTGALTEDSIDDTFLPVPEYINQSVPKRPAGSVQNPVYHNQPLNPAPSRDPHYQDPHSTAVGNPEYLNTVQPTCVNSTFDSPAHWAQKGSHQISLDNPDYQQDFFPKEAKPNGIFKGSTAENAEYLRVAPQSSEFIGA
# [2] = molecular target: T1, L858R/T790M/C797S triple mutant EGFR (Homo sapiens, UniProt P00533, C797S/L858R/T790M); assay: Enzymology experiment in vitro (HTRF/FRET kinase activity), L858R/T790M/C797S triple mutant EGFR; format: biochemical; conditions: HTRF KinEASE-TK
# T1 construct: purchased Signalchem
# T1 sequence (P00533 25-1210 T790M/C797S/L858R): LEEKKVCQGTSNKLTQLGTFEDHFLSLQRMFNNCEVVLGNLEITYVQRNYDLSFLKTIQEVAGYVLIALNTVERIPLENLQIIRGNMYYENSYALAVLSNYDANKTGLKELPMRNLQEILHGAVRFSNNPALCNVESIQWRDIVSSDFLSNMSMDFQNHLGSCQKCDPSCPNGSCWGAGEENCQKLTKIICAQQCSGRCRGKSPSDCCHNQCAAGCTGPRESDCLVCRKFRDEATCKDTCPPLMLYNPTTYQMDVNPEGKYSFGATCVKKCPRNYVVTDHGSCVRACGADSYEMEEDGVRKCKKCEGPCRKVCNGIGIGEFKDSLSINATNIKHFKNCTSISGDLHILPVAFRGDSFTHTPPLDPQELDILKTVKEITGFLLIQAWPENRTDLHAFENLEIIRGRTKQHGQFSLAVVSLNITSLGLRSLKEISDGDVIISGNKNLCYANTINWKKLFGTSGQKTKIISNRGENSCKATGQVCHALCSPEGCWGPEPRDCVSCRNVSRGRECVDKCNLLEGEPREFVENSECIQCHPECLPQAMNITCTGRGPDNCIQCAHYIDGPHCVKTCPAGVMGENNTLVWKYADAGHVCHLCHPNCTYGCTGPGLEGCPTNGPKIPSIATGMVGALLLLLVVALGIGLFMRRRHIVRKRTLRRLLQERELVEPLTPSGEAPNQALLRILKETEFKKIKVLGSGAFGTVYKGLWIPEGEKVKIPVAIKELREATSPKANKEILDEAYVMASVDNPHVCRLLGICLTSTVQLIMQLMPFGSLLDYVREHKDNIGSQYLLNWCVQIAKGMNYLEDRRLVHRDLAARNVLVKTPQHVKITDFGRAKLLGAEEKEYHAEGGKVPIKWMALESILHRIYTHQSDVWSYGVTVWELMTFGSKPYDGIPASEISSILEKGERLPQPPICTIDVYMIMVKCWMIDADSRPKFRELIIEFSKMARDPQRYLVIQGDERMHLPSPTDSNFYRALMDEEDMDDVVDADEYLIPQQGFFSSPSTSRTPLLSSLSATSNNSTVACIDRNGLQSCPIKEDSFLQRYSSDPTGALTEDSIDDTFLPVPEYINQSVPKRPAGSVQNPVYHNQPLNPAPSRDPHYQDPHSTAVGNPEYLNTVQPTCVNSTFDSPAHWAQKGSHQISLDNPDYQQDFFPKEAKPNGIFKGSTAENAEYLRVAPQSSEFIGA
# How it was run: (§1)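 Kinase reaction run 40 min at room temperature with peptide and ATP after a 10 min compound–enzyme preincubation. Phosphorylation read as HTRF signal after 1 h with Eu³⁺ antibody, XL665-streptavidin and EDTA (Cisbio KinEASE-TK).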
# [3] = tested on: EGFR wild-type cell line A431; assay: Cell proliferation inhibition experiment (CellTiter-Glo), A431; format: cell-based; conditions: A431 cells, Cell Titer-Glo, read-out: A431 EGFR WT IC50
# How it was run: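 Luminescent CellTiter-Glo readout, 30 min at room temperature, after 72 h compound exposure at 37° C., 5% CO2 with 0.1% DMSO final. EGFR wild-type A431 cells were seeded at 800 per well and grown 24 h before dosing. IC50 derived from the dose-response.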
# [4] = molecular target: T2, wild-type EGFR (Homo sapiens, UniProt P00533); assay: Enzymology experiment in vitro (HTRF/FRET kinase activity), wild-type EGFR; format: biochemical; conditions: HTRF KinEASE-TK
# T2 construct: purchased Signalchem
# T2 sequence (P00533 25-1210): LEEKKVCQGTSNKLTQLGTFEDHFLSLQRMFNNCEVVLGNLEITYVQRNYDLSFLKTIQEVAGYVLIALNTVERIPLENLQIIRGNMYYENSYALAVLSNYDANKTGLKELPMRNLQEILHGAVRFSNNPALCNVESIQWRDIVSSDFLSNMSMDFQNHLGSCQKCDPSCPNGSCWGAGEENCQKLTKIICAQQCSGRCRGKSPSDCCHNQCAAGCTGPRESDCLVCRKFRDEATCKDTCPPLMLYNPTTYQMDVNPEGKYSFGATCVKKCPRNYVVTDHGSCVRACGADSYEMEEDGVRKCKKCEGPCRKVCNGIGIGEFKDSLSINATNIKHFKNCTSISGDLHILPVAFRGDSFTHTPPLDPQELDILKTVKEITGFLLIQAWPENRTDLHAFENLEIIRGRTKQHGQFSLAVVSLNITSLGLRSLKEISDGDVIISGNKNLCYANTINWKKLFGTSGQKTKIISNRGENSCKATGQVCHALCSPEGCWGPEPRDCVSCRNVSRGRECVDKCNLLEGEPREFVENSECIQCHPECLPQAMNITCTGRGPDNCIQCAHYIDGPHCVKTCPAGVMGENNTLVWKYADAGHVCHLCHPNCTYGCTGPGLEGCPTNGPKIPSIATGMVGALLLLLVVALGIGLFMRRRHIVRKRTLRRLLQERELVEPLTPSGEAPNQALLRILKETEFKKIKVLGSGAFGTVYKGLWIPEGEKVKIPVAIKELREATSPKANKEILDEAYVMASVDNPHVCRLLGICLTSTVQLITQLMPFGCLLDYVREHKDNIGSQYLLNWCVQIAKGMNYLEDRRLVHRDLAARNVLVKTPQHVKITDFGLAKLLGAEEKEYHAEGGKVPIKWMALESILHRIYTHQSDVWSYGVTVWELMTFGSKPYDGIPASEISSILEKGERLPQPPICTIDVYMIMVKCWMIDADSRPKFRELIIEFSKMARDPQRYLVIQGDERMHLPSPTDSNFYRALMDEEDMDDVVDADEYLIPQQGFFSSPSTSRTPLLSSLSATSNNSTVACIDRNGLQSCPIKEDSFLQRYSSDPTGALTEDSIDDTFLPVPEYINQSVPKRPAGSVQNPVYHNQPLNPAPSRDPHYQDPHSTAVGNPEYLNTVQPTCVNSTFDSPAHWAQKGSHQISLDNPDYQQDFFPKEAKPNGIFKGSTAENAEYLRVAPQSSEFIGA
# How it was run: as §1
# [5] = molecular target: Ba/F3 De119/T790M/C797S EGFR triple mutant cell line (Homo sapiens, UniProt P00533, T790M/C797S, cells depend on it, form not given); assay: Cell proliferation inhibition experiment (CellTiter-Glo), Ba/F3 De119/T790M/C797S; format: cell-based; conditions: Ba/F3 Del19/T790M/C797S EGFR triple mutant cells, 72 hours, Cell Titer-Glo; read-out: Ba/F3 (Del19/T790M/C797S) IC50
# Sequence of Ba/F3 De119/T790M/C797S EGFR triple mutant cell line (P00533 with tags, fused parts or gaps DEL746-750/T790M/C797S, form open): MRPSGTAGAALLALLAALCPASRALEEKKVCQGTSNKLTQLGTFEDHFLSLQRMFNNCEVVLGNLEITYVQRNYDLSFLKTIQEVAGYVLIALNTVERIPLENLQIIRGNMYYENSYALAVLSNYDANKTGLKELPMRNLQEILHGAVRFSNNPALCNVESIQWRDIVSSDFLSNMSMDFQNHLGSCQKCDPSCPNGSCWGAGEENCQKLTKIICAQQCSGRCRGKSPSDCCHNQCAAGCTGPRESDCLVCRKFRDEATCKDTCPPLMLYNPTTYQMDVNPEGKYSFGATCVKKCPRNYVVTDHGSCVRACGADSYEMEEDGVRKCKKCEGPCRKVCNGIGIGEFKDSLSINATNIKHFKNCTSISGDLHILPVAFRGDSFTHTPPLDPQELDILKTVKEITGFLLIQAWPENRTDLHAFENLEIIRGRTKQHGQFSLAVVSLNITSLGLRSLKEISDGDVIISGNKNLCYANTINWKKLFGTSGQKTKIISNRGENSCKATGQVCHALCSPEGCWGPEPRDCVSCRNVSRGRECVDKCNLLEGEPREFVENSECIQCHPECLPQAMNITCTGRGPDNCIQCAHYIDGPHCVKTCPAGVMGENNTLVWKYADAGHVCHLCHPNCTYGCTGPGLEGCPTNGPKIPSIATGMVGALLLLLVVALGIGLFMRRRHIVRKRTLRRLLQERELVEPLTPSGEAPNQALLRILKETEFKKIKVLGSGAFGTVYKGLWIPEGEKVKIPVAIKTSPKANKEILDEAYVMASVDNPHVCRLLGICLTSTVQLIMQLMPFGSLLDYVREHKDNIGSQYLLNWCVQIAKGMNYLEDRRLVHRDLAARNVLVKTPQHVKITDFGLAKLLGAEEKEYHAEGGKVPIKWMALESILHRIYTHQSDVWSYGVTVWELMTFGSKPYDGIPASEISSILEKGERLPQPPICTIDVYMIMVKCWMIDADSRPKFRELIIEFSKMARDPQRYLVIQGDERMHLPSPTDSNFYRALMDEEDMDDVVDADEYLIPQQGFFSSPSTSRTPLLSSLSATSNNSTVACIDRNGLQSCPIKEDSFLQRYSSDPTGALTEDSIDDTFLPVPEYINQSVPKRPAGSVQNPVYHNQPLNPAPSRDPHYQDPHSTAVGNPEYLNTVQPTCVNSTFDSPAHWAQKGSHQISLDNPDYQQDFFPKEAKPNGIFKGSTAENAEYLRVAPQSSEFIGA
# [6] = read-out: EGFR (L858R/T790M/C797S) IC50
GI50 [1] [nM],"IC50 [2, 6] [nM]","IC50 ([3]; Homo sapiens, A-431, 72 h) [nM]",IC50 ([4]; read-out: EGFR (WT) IC50) [nM],GI50 [5] [nM],IC50 ([3]; 72 hours) [nM],SMILES,IC50 ([2]; EGFR (L858R/T790M/C797S) IC50(nM)) [nM],"IC50 ([3]; Homo sapiens, A-431, 72 hours) [nM]",IC50 ([4]; EGFR (WT) IC50(nM)) [nM]
11.2,0.25,66.9,1.57,5.19,–,COc1cc(N2CCC(N3CC(CF)C3)CC2)c(-c2cnn(C)c2)cc1Nc1ncc(Br)c(Nc2ccc3nccnc3c2P(C)(C)=O)n1 [compound 204],–,–,–
8.9,0.35,116,3.08,3.2,–,"COc1cc(N2CCC3CCN(CCF)C3C2)c(-c2cnn(C)c2)cc1Nc1ncc(Br)c(Nc2ccc3nccnc3c2P(C)(C)=O)n1 (stereo not shown) [compound 205, (6-((5-Bromo-2-((4-(1-(2-fluoroethyl)octahydro-6H-pyrrolo[2,3-c]pyridin-6-yl)-2-methoxy-5-(1-methyl-1H-pyrazol-4-yl)phenyl)amino)pyrimidin-4-yl)amino)quinoxalin-5-yl)dimethylphosphine oxide]",–,–,–
30.2,0.62,298,8.46,7.62,–,COc1cc(N2CCC3CCN(CCOC(C)C)C3C2)c(-c2cnn(C)c2)cc1Nc1ncc(Br)c(Nc2ccc3nccnc3c2P(C)(C)=O)n1 (stereo not shown) [compound 206],–,–,–
14.6,0.57,348,5.79,9.45,–,COc1cc(N2CCC3(CC2)COCCN3C)c(-c2cnn(C)c2)cc1Nc1ncc(Br)c(Nc2cc3c(cc2N(C)S(C)(=O)=O)CC3)n1 [compound 208],–,–,–
12.6,0.73,171,9.74,7.18,–,COc1cc(N2CCC(N3CCN(CCF)CC3)CC2)c(-c2cnn(C)c2)cc1Nc1ncc(Br)c(Nc2ccccc2N(C)S(=O)(=O)C2CC2)n1 [compound 209],–,–,–
24.8,0.61,354,10.9,14.3,–,COc1cc(N2CCC(N3CCN(C)CC3)C(F)C2)c(-c2cnn(C)c2)cc1Nc1ncc(Br)c(Nc2ccccc2N(C)S(=O)(=O)C2CC2)n1 (stereo not shown) [compound 211],–,–,–
25.1,0.33,179,18.9,9.29,–,COc1cc(N2CCC(N3CCOCC3)CC2)c(-c2cnsc2)cc1Nc1ncc(Br)c(Nc2ccc3nccnc3c2P(C)(C)=O)n1 [compound 212],–,–,–
4.87,0.36,139,1.86,1.47,–,COc1cc(N2CCC(N3CCOCC3)C(F)C2)c(-c2cnn(C)c2)cc1Nc1ncc(Br)c(Nc2ccc3nccnc3c2P(C)(C)=O)n1 (stereo not shown) [compound 214],–,–,–
5.58,0.25,227,7.3,2.23,–,COc1cc(N2CCC3(CCOCC3)CC2)c(-c2cnn(C)c2)cc1Nc1ncc(Br)c(Nc2ccc3nccnc3c2P(C)(C)=O)n1 [compound 215],–,–,–
7.32,0.29,45.7,1.71,2.06,–,COc1cc(N2CCC(N(C)C)C(F)C2)c(-c2cnn(C)c2)cc1Nc1ncc(Br)c(Nc2ccc3nccnc3c2P(C)(C)=O)n1 (stereo not shown) [compound 216],–,–,–
1.08,0.12,32.1,1.66,1.1,–,"COc1cc(N2CCN(CC3COC3)CC2)c(-c2cnn(C)c2)cc1Nc1ncc(Br)c(Nc2ccc3nccnc3c2P(C)(C)=O)n1 [compound 219, (6-((5-Bromo-2-((2-methoxy-5-(1-methyl-1H-pyrazol-4-yl)-4-(4-(oxetan-3-ylmethyl)piperazin-1-yl)phenyl)amino)pyrimidin-4-yl)amino)quinoxalin-5-yl)dimethylphosphine oxide]",–,–,–
2.02,0.3,70.4,4.22,1.22,–,"COc1cc(N2CCN(CCC(F)F)CC2)c(-c2cnn(C)c2)cc1Nc1ncc(Br)c(Nc2ccc3nccnc3c2P(C)(C)=O)n1 [compound 222, (6-((5-Bromo-2-((4-(4-(3,3-difluoropropyl)piperazin-1-yl)-2-methoxy-5-(1-methyl-1H-pyrazol-4-yl)phenyl)amino)pyrimidin-4-yl)amino)quinoxalin-5-yl)dimethylphosphine oxide]",–,–,–
13.2,4.31,336,10.7,8.88,–,"COc1cc(N2CCC3(CC2)CN(C(C)C)CC(C)(C)O3)c(-c2cnn(C)c2)cc1Nc1ncc(Br)c(Nc2ccc3nccnc3c2P(C)(C)=O)n1 [compound 224, (6-((5-Bromo-2-((4-(4-isopropyl-2,2-dimethyl-1-oxa-4,9-diazaspiro [5.5]undecane-9-yl)-2-methoxy-5-(1-methyl-1H-pyrazol-4-yl)phenyl)amino)pyrimidin-4-yl)amino)quinoxalin-5-yl)dimethylphosphine oxide]",–,–,–
11.3,1.96,370,10.8,3.54,–,COc1cc(N2CCC(OCC3CC3)CC2)c(-c2cnn(C)c2)cc1Nc1ncc(Br)c(Nc2ccc3ncccc3c2P(C)(C)=O)n1 [compound 225],–,–,–
4.34,0.19,47.4,1.4,1.55,–,CCN1CCC2(CC1)CCN(c1cc(OC)c(Nc3ncc(Br)c(Nc4ccc5nccnc5c4P(C)(C)=O)n3)cc1-c1cnn(C)c1)CC2 [compound 226],–,–,–
6.64,0.59,34.7,2.69,2.78,–,COc1cc(N2CCC3CCN(CC4CC4)C3C2)c(-c2cnn(C)c2)cc1Nc1ncc(Br)c(Nc2ccc3nccnc3c2P(C)(C)=O)n1 (stereo not shown) [compound 227],–,–,–
8.5,0.48,44.8,1.04,4.58,–,COc1cc(N2CCC3(CC2)CCN(C(C)C)CC3)c(-c2cnn(C)c2)cc1Nc1ncc(Br)c(Nc2ccc3nccnc3c2P(C)(C)=O)n1 [compound 228],–,–,–
12.1,0.42,164,8.53,3.76,–,COc1cc(N2CCN(C3(C)CC3)CC2)c(-c2cnn(C)c2)cc1Nc1ncc(Br)c(Nc2ccc3nccnc3c2P(C)(C)=O)n1 [compound 229],–,–,–
10.1,0.29,126,12,4.47,–,COc1cc(N2CCC3(CCN(CCF)CC3)CC2)c(-c2cnn(C)c2)cc1Nc1ncc(Br)c(Nc2ccccc2P(C)(C)=O)n1 [compound 230],–,–,–
1.12,0.37,40.1,1.12,1.08,–,COc1cc(N2CCC3(CCN(CCF)CC3)CC2)c(-c2cnn(C)c2F)cc1Nc1ncc(Br)c(Nc2ccc3nccnc3c2P(C)(C)=O)n1 [compound 231],–,–,–
3.54,0.26,79.5,2.49,1.74,–,COc1cc(N2CCC3(CCN(CCF)CC3)CC2)c(-c2cnn(C)c2)cc1Nc1ncc(Cl)c(Nc2ccc3nccnc3c2P(C)(C)=O)n1 [compound 233],–,–,–
24.8,0.27,–,10.5,8.53,89,COc1cc(N2CCN(CC3CC3)CC2)c(-c2cnn(C)c2)cc1Nc1ncc(Br)c(Nc2ccc3nccnc3c2P(C)(C)=O)n1 [compound 235],–,–,–
12.7,0.21,91.5,11,5.45,–,COc1cc(N2CCN(CC3CC3)CC2)c(-c2cnn(C)c2)cc1Nc1ncc(Br)c(Nc2ccc3cncnc3c2P(C)(C)=O)n1 [compound 236],–,–,–
3.05,0.52,129,5.2,1.26,–,"COc1cc(N2CCN(CC3(C#N)CC3)CC2)c(-c2cnn(C)c2)cc1Nc1ncc(Br)c(Nc2ccc3nccnc3c2P(C)(C)=O)n1 [compound 237, 1-((4-(4-((5-Bromo-4-((5-(dimethylphosphoryl)quinoxalin-6-yl)amino)pyrimidin-2-yl)amino)-5-methoxy-2-(1-methyl-1H-pyrazol-4-yl)phenyl)piperazin-1-yl)methyl)cyclopropane-1-carbonitrile]",–,–,–
3.59,0.3,61.9,3.02,1.83,–,COc1cc(N2CCC3(CCN(CCF)CC3)CC2)c(-c2cnn(C)c2)cc1Nc1ncc(Br)c(Nc2ccc3ncccc3c2P(C)(C)=O)n1 [compound 238],–,–,–

SMILES,GI50 [1] [nM],"IC50 [2, 6] [nM]","IC50 ([3]; Homo sapiens, A-431, 72 h) [nM]",IC50 ([4]; read-out: EGFR (WT) IC50) [nM],GI50 [5] [nM],IC50 ([3]; 72 hours) [nM],IC50 ([2]; EGFR (L858R/T790M/C797S) IC50(nM)) [nM],"IC50 ([3]; Homo sapiens, A-431, 72 hours) [nM]",IC50 ([4]; EGFR (WT) IC50(nM)) [nM]
COCCN1CCN(C2CCN(c3cc(OC)c(Nc4ncc(Br)c(Nc5ccc6nccnc6c5P(C)(C)=S)n4)cc3-c3cnn(C)c3)CC2)CC1 [compound 232],8.59,–,–,–,3.16,–,0.58,126,4.11
